Measurements published in patent US10570179B2, “Substituted urea depsipeptide analogs as activators of the CLPP endopeptidase” (priority 2016, dated 2020).
Values after ≈ are worked out from the molar mass of the structure shown. Numbered stars: 1 amine (or outer) side, 2 acyl side, 3 side chain; on linkers, the order of the positions; unused ones are H or OH. Bridge positions count the residues as written; N and C are the ends. Square brackets hold non-standard residues; d marks the D form. Peptide text beside a SMILES is read from it. * marks the point of attachment. Phe(3-Me) = Cc1cccc(C[C@H](N)C(=O)O)c1; X4 = O=C1CN([*:1])[C@H](C(=O)[*:2])CN1; NH(4-Cl-2-F-phenyl) = Fc1cc(Cl)ccc1N*; Pro(4R-Me) = C[C@H]1CN[C@H](C(=O)O)C1; aThr = C[C@H](O)[C@H](N)C(=O)O; Pip = O=C(O)[C@@H]1CCCCN1; X3 = c1cc2c(cc1N*)OCCO2; CO = O=C([*:1])[*:2]

Tests used:
[1] = target: T1, Sa-ClpP (Staphylococcus aureus, UniProt Q2G036); assay: ADEP displacement fluorescence polarization assay; format: binding, S. aureus; conditions: displacement of FP probe ADEP 2591 from Sa-ClpP
T1 construct: made in house; host or cells: E. coli BL21 (DE3)
Summary of the method: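 Master mix of 15 μM Sa-ClpP and 50 nM TAMRA-labelled ADEP 2591 probe in Tris-HCl pH 8.0, 2% DMSO, was pre-equilibrated 1 h at RT, then compounds were added and incubated 120 min at RT. Polarization (ex 530, em 579 nm, mP) was normalised to 200 μM ADEP 2378 and DMSO controls and fitted by four-parameter regression, in triplicate.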

[2] = test system: S. aureus ΔClpP; assay: Minimal inhibitory concentration, microbroth dilution; format: cell-based, Staphylococcus aureus; conditions: MIC; ClpP inactivated
Summary of the method: (§1)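 Following CLSI M7-A7 microbroth dilution, twofold serial dilutions of compound (top final concentration 200 μM) were combined with an equal volume of broth inoculum at about 10^5 cfu/mL. Plates were incubated aerobically at 37 °C overnight, and the MIC was the lowest concentration preventing visible growth.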

[3] = test system: E. faecails; assay: as above; format: cell-based; conditions: Enterococcus faecalis; MIC; read-out: Minimal Inhibitory Concentrations (μM) E. faecails
Summary of the method: as §1

[4] = test system: MRSA NRS70; assay: as above; format: cell-based; conditions: Staphylococcus aureus; MIC; read-out: Minimal Inhibitory Concentrations (μM) MRSA NRS70
Summary of the method: as §1

[5] = test system: S. aureus ATCC 29213; assay: as above; format: cell-based; conditions: Staphylococcus aureus, ATCC29213; MIC; read-out: Minimal Inhibitory Concentrations (μM) S. aureus ATCC 29213
Summary of the method: as §1

[6] = test system: S. aureus USA 300; assay: as above; format: cell-based; conditions: Staphylococcus aureus, USA300; MIC; read-out: Minimal Inhibitory Concentrations (μM) S. aureus USA 300
Summary of the method: as §1

[7] = Plasma stability assay; format: in vitro ADME, human; conditions: human, 10 μM
Summary of the method: (§2)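 Compounds at 10 μM final in human or mouse plasma, incubated at 37 °C and sampled at 0, 3, 24 and 48 h in triplicate. Reactions quenched with cold acetonitrile containing warfarin internal standard; parent measured by LC-MS. Half-life from least-squares first-order fit.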

[8] = Plasma stability assay; format: in vitro ADME, mouse; conditions: mouse, 10 μM
Summary of the method: as §2

T1 sequence (Q2G036 whole entry): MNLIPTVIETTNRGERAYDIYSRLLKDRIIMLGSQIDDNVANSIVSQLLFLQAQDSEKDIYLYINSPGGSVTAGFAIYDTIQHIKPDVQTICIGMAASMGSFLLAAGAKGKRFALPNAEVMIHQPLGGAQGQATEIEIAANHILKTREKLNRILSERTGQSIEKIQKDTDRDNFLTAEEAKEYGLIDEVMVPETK

Row | Compound | IC50 [1] [µM] | Minimal Inhibitory Concentrations (μM) S. aureus ΔClpP [2] [µM] | MIC [3] [µM] | MIC [4] [µM] | MIC [5] [µM] | MIC [6] [µM] | Human [7] [h] | Mouse [8] [h]
1 | Cc1cccc(C[C@H](NC(=O)Nc2ccc(Cl)cc2F)C(=O)N[C@@H]2C(=O)N3CCC[C@H]3C(=O)N3CC(=O)NC[C@H]3C(=O)N[C@@H](C)C(=O)N3C[C@H](C)C[C@H]3C(=O)O[C@H]2C)c1 [Compound 20, (S)-2-(3-(4-CHLORO-2-FLUOROPHENYL)UREIDO)-3-(M-TOLYL)-N-((6AS,12S,13S,15AS,17R,21S,23AS)-13,17,21-TRIMETHYL-3,6,11,15,20,23-HEXAOXOOCTADECAHYDRO-2H,6H,11H,15H-PYRAZINO[2,1-I]DIPYRROLO[2,1-C:2′,1′-L][1]OXA[4,7,10,13]TETRAAZACYCLOHEXADECIN-12-YL)PROPANAMIDE] ({NH(4-Cl-2-F-phenyl)-CO}-[Phe(3-Me)][aThr]P[X4]A[Pro(4R-Me)]; ester 2-C) | 4.21 ± 0.2 | >20 | 2.5 (≈ 2.1 µg/mL) | 5 (≈ 4.2 µg/mL) | 1.25 (≈ 1.05 µg/mL) | 5 (≈ 4.2 µg/mL) | 14.0 | 13.2
2 | Cc1cccc(C[C@H](NC(=O)Nc2ccc3c(c2)OCCO3)C(=O)N[C@@H]2C(=O)N3CCC[C@H]3C(=O)N3CCCC[C@H]3C(=O)N[C@@H](C)C(=O)N3C[C@H](C)C[C@H]3C(=O)O[C@H]2C)c1 [Compound 21, (S)-2-(3-(2,3-DIHYDROBENZO[B][1,4]DIOXIN-6-YL)UREIDO)-3-(M-TOLYL)-N-((2R,6S,8AS,14AS,20S,21S,23AS)-2,6,21-TRIMETHYL-5,8,14,19,23-PENTAOXOOCTADECAHYDRO-1H,5H,14H,19H-PYRIDO[2,1-I]DIPYRROLO[2,1-C:2′,1′-L][1]OXA[4,7,10,13]TETRAAZACYCLOHEXADECIN-20-YL)PROPANAMIDE] ({X3-CO}-[Phe(3-Me)][aThr]P[Pip]A[Pro(4R-Me)]; ester 2-C) | 3.74 ± 0.24 | >20 | 0.625 (≈ 0.519 µg/mL) | 0.313 (≈ 0.26 µg/mL) | 0.625 (≈ 0.519 µg/mL) | 1.25 (≈ 1.04 µg/mL) | >50 | >50
3 | Cc1cccc(C[C@H](NC(=O)Nc2ccc3c(c2)OCCO3)C(=O)N[C@H]2COC(=O)[C@@H]3C[C@@H](C)CN3C(=O)[C@H](C)NC(=O)[C@@H]3CCCCN3C(=O)[C@@H]3CCCN3C2=O)c1 [Compound 22, (S)-2-(3-(2,3-DIHYDROBENZO[B][1,4]DIOXIN-6-YL)UREIDO)-N-((2R,6S,8AS,14AS,20S,23AS)-2,6-DIMETHYL-5,8,14,19,23-PENTAOXOOCTADECAHYDRO-1H,5H,14H,19H-PYRIDO[2,1-I]DIPYRROLO[2,1-C:2′,1′-L][1]OXA[4,7,10,13]TETRAAZACYCLOHEXADECIN-20-YL)-3-(M-TOLYL)PROPANAMIDE] | 4.12 ± 0.29 | >20 | 1.25 (≈ 1.02 µg/mL) | 1.25 (≈ 1.02 µg/mL) | 5 (≈ 4.08 µg/mL) | 5 (≈ 4.08 µg/mL) | >50 | 46.15
4 | Cc1cccc(C[C@H](NC(=O)Nc2ccc3c(c2)OCO3)C(=O)N[C@H]2COC(=O)[C@@H]3C[C@@H](C)CN3C(=O)[C@H](C)NC(=O)[C@@H]3CCCCN3C(=O)[C@@H]3CCCN3C2=O)c1 [Compound 23, (S)-2-(3-(BENZO[D][1,3]DIOXOL-5-YL)UREIDO)-N-((2R,6S,8AS,14AS,20S,23AS)-2,6-DIMETHYL-5,8,14,19,23-PENTAOXOOCTADECAHYDRO-1H,5H,14H,19H-PYRIDO[2,1-I]DIPYRROLO[2,1-C:2′,1′-L][1]OXA[4,7,10,13]TETRAAZACYCLOHEXADECIN-20-YL)-3-(M-TOLYL)PROPANAMIDE] | 1.96 ± 0.12 | >20 | 0.625 (≈ 0.501 µg/mL) | 0.625 (≈ 0.501 µg/mL) | 1.25 (≈ 1 µg/mL) | 1.25 (≈ 1 µg/mL) | >50 | 27.31
